Patent US4338331A, “Isoindoline derivative and a therapeutic composition thereof” (priority 1979, dated 1982)
Several values for one entry are separate records, joined by “and”; a condition that tells them apart may be missing. Identical values can stand only once.

Columns and labels:
[1] = Acute toxicity, oral, rat; format: in vivo; details: in vivo, rat, read-out: DL50
Description: (§1) Acute toxicity was determined orally in the Wister rat and in the Swiss mouse of both sexes.
(§2) The animals were kept fasting for at least 12 hours before the tests but whith free access to water. The compound was suspended homogeneously in gum arabic mucilage and was administered, at the set doses, in a volume of 40 ml/kg by means of a gastro-oesophageal probe.
(§3) Each dose was tested on ten animals, of which five were male and five female. The weight of the rats varied from 300 to 350 g for the males and from 220 g to 250 g for the females. The weight of the mice, of both sexes, varied from 28 g to 35 g.
(§4) The observation lasted ten days.

[2] = tested on: Wister rat; assay: Acute toxicity, oral, rat; format: in vivo
Description: as §1, §2, §3, §4

[3] = tested on: female Wistar rats; assay: Diuretic and saluretic activity: excretion of an aqueous saline load (TABLE 1); format: in vivo, Wistar rat; details: 5 mg/kg oral
Description: (§5) Both the CM/1 and the Indapamide were administered orally after being suitably dissolved in the following solvent:
(§6) The controls were treated with an equal volume of solvent. The experiments were carried out on animals which had regularly fasted for at least 12 hours, but had free access to water.
(§7) The sodium and potassium in the urine were determined by a photometric method.
The effect on the excretion of an aqueous saline load was first checked. 18 female Wistar rats were used divided into three groups, one of 8 and two of 5, and these were treated in the following manner:
GROUP A: CONTROLS 1 ml of solvent made up to 50 ml with 0.9% sodium chloride solution, administered by gastric probe, per kg of body weight (=50 ml/kg in terms of volume);
GROUP B: INDAPAMIDE 5 mg/kg in 1 ml/kg of solvent made up to 50 ml/kg with sodium chloride solution, administered by gastric probe;
GROUP C: CM/1,5 mg/kg using the same method as for the Indapamide.
The rats were placed immediately in individual metabolic cages for collecting the urine during the three hours subsequent to the load. The quantity of urine excreted is given as a percentage of the quantity administered. The sodium and potassium are expressed in mEq/3h.
Values of P less than 0.05 have been considered significant.

[4] = tested on: male rats; assay: Diuretic and saluretic activity: excretion of a load of distilled water (TABLE 2); format: in vivo, Wistar rat; details: 5 mg/kg oral + aqueous load
Description: as §5, §6, §7
The rats were then immediately placed in individual metabolic cages. The urine was collected over 4 hours. The quantity has been expressed in the usual manner as a percentage of the volume administered.
Sodium and potassium were also analysed, and these have been expressed as mEq/4h.
After two days, in the preceding manner, the same rats were treated with Indapamide, and after a further two days with the product CM/1. In the interval between one test and the other, the rats were housed and fed in the normal manner. The dose used for both compounds was the same as previously, i.e. 5 mg/kg.

[5] = tested on: female Wistar rats; assay: Effect on spontaneous diuresis (TABLE 3); format: in vivo, Wistar rat; details: 5 mg/kg oral; for Excreted sodium/potassium ratio: 12 h; for Potassium excretion / Sodium excretion: spontaneous diuresis
Description: These investigations were carried out on Wistar rats of both sexes, having a body weight which is specified in each case in the relative tables, which compare the results with Indapamide. Both the CM/1 and the Indapamide were administered orally after being suitably dissolved in the following solvent:
as §6, §7
Finally, the effect on the new product of spontaneous diuresis was determined.
These investigations were carried out on 15 female Wistar rats having a body weight varying from 230 to 260 g, and divided at random into three groups of 5. The animals were kept in individual metabolic cages overnight for a period of 12 hours in order to collect the urine spontaneously excreted. One group was treated as usual with 1 ml/kg of solvent by means of a gastric probe, and the other two were treated respectively with 5 mg/kg of Indapamide and 5 mg/kg of CM/1. The sodium and potassium were analysed as usual in the urine collected.

[6] = saline load, mean ± standard error, n = 5

Q: For `CC1c2ccccc2CN1NC(=O)c1ccc(Cl)c(S(N)(=O)=O)c1` (stereo not shown) [CM/1, 1-methyl-2-(3'-sulphamyl-4'-chlorobenzamido)-isoindoline], which LD50 at 240 h [1] is on record?
A: > 2500 mg/kg

Q: What about the DL50 ([2]; Wister rat, both sexes, 10 days observation) of the same molecule?
A: > 2,500 mg/kg

Q: What about the “deaths / toxic symptomatology” value ([2]; rat, individual doses up to 2,500 mg/kg) of the same molecule?
A: No deaths were observed either in the rat or in the mouse, nor was any particular toxic symptomatology found

Q: And the “diuretic and saluretic effect, CM/1 compared with Indapamide” value [3]?
A: considerably greater

Q: And the “Urine excretion of load in percent of quantity administered (cumulative excretion), 1 hour” value ([3]; individual rats)?
A: 16.7% and 14.8% and 11.5% and 9.1% and 12.9%

Q: And the “Urine excretion of load in percent of quantity administered (cumulative excretion), 2 hours” value ([3]; individual rats)?
A: 68.3% and 32.2% and 48.5% and 64.5% and 48.7%

Q: And the “Urine excretion of load in percent of quantity administered (cumulative excretion), 3 hours” value ([3]; individual rats)?
A: 108.8% and 94.5% and 109.2% and 94.8% and 90.4%

Q: And the “Urine excretion of load in percent of quantity administered (cumulative excretion), 1 hour” value ([3]; mean ± standard error, n = 5)?
A: 13.0 ± 1.31%

Q: What about the “Urine excretion of load in percent of quantity administered (cumulative excretion), 2 hours” value ([3]; mean ± standard error, n = 5) of the same molecule?
A: 52.44 ± 6.46%

Q: What about the “Urine excretion of load in percent of quantity administered (cumulative excretion), 3 hours” value ([3]; mean ± standard error, n = 5) of the same molecule?
A: 99.54 ± 3.93% and 99.5%

Q: And the “diuretic and saluretic effect” value ([3]; relative to the controls)?
A: significant diuretic and saluretic effect relative to the controls

Q: And the “ratio of the sodium to the potassium excreted during the 3 hours” value ([3]; saline load)?
A: 5.91

Q: What about the Potassium excretion ([3]; saline load, individual rats) of the same molecule?
A: 0.297 mEq/3h and 0.310 mEq/3h and 0.276 mEq/3h and 0.280 mEq/3h and 0.284 mEq/3h

Q: And the Sodium excretion ([3]; saline load, individual rats)?
A: 1.81 mEg/3h and 1.77 mEg/3h and 1.56 mEg/3h and 1.68 mEg/3h and 1.73 mEg/3h

Q: And the Potassium excretion [3, 6]?
A: 0.289 ± 0.062 mEq/3h

Q: What about the Sodium excretion [3, 6] of the same molecule?
A: 1.71 ± 0.043 mEg/3h

Q: What about the “excreted sodium and potassium” value ([3]; versus controls) of the same molecule?
A: significantly higher than the controls

Q: And the “activity of CM/1 compared with Indapamide” value [4]?
A: more active than the Indapamide

Q: And the “diuretic and saluretic action” value [4]?
A: significant diuretic and saluretic action

Q: And the “RATIO Na/K (sodium to potassium excreted)” value ([4]; 4 h, average)?
A: 2.6955

Q: What about the “Cumulative percent excretion at 1 hour from load” value ([4]; individual rats) of the same molecule?
A: 58.1% and 50.0% and 7.1% and 55.2% and 51.6%

Q: And the “Cumulative percent excretion at 2 hours from load” value ([4]; individual rats)?
A: 109.7% and 78.6% and 57.1% and 110.4% and 125.8%

Q: What about the “Cumulative percent excretion at 3 hours from load” value ([4]; individual rats) of the same molecule?
A: 116.2% and 107.2% and 85.7% and 134.5% and 145.2%

Q: What about the “Cumulative percent excretion at 4 hours from load” value ([4]; individual rats) of the same molecule?
A: 116.2% and 121.4% and 114.3% and 134.5% and 167.8%

Q: What about the Potassium excretion ([4]; individual rats) of the same molecule?
A: 0.00542 mEq/4h and 0.00512 mEq/4h and 0.00603 mEq/4h and 0.00856 mEq/4h and 0.01399 mEq/4h

Q: What about the Sodium excretion ([4]; individual rats) of the same molecule?
A: 0.01374 mEq/4h and 0.01362 mEq/4h and 0.0125 mEq/4h and 0.01671 mEq/4h and 0.04889 mEq/4h

Q: And the “Cumulative percent excretion at 1 hour from load” value ([4]; mean of 5 rats)?
A: 44.4%

Q: What about the “Cumulative percent excretion at 2 hours from load” value ([4]; mean of 5 rats) of the same molecule?
A: 96.32%

Q: What about the “Cumulative percent excretion at 3 hours from load” value ([4]; mean of 5 rats) of the same molecule?
A: 117.76%

Q: And the “Cumulative percent excretion at 4 hours from load” value ([4]; mean of 5 rats)?
A: 130.84 ± 9.89%

Q: What about the Potassium excretion ([4]; mean of 5 rats) of the same molecule?
A: 0.007824 mEq/4h

Q: And the Sodium excretion ([4]; mean of 5 rats)?
A: 0.02109 mEq/4h

Q: What about the diuretic action [5] of the same molecule?
A: marked diuretic action, which is stronger in the case of the product CM/1

Q: And the “ratio of sodium to potassium excretion, CM/1 compared with Indapamide” value [5]?
A: higher in the group treated with the product CM/1, and the difference reaches statistical significance

Q: And the “sodium and potassium excretion” value [5]?
A: increased

Q: What about the Excreted sodium/potassium ratio ([5]; individual rats) of the same molecule?
A: 1.651 and 2.262 and 2.277 and 2.188 and 1.746

Q: What about the Excreted sodium/potassium ratio ([5]; mean ± standard error, n = 5) of the same molecule?
A: 2.024 ± 0.134

Q: What about the “ml of urine collected in 12 hours” value ([5]; individual rats) of the same molecule?
A: 10.5 mL and 17.5 mL and 21.0 mL and 16.6 mL and 15.0 mL

Q: What about the “ml of urine collected in 12 hours” value ([5]; mean ± standard error, n = 5) of the same molecule?
A: 16.12 ± 1.71 mL

Q: And the Potassium excretion ([5]; individual rats)?
A: 3.708 mEq/12h and 3.042 mEq/12h and 3.911 mEq/12h and 3.508 mEq/12h and 3.430 mEq/12h

Q: What about the Sodium excretion ([5]; individual rats) of the same molecule?
A: 6.123 mEq/12h and 6.880 mEq/12h and 8.906 mEq/12h and 7.675 mEq/12h and 5.989 mEq/12h

Q: What about the Potassium excretion ([5]; mean ± standard error, n = 5) of the same molecule?
A: 3.5198 ± 0.145 mEq/12h

Q: And the Sodium excretion ([5]; mean ± standard error, n = 5)?
A: 7.114 ± 0.539 mEq/12h
